Where “and” joins values, the source holds several entries; their conditions need not be identical. Equal entries are not always repeated. Where two headings read alike, the source gives them in different places. Where a SMILES comes first, the peptide text is derived from it.
Experiments:
[1] = target: T1, bovine carbonic anhydrase (bCA) (Bos taurus, UniProt P00921); test: Inhibition of esterase activity (p-nitrophenyl acetate) of purified bCA; format: biochemical; conditions: for IC50 / IC50 bCA: esterase activity method, saturated substrate concentration
T1 construct: from tissue; host or cells: bovine blood hemolysate (erythrocytes are inferred)
T1 sequence (P00921 whole entry): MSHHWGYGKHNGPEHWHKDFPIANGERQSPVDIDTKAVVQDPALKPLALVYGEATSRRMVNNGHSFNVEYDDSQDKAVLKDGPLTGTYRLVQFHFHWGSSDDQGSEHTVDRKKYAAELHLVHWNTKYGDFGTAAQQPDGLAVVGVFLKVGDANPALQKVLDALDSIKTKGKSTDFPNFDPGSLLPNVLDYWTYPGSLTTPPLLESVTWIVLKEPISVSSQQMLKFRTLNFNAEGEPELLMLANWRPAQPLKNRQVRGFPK
Protocol: (§1) The human erythrocyte carbonic anhydrase isozymes hCAI and hCAII were eluted with 50 mM Na2HPO4 ‐ 1 M NaCl, pH: 6.3, and 0.1 M CH3COONa ‐ 0.5 M NaClO4, pH: 5.6, respectively (flow rate: 20 mL/h, fraction volume: 5 mL). The bovine enzyme was eluted with 0.1 M CH3COONa ‐ 0.5 M NaClO4 (pH: 5.6) buffer system. The protein elution by affinity column chromatography was monitored by absorbance measurement at 280 nm.
(§2) Carbonic anhydrase activity was also assayed by following esterase activity according to the method defined by Verpoorte et al. with slight modification. The enzyme hydrolyzes the substrate, p‐nitrophenyl acetate, to p‐nitrophenol or p‐nitrophenolate. The change in absorbance was measured spectrophotometrically at room temperature for a period of 3 min. The reaction mixture contained 0.5 mL of 0.05 M Tris–SO4 buffer (pH: 7.4), 0.75 mL of p‐NPA (3 mM), 0.1 mL of distilled water, and 0.15 mL of the enzyme solution (final volume 1.5 mL). […] All measurements were performed as triplicates. The method was used to determine the inhibitory activities of the food additives studied.
(§3) To determine the effect of all samples on bCA, hCAI, and hCAII isoenzymes esterase activity at saturated substrate concentration, activity (%) ‐ inhibitor concentration [I] graphs were plotted.

[2] = parameters: method as in Joint FAO/WHO Expert Committee on Food Additives; conditions: NL: not limited; ref Joint FAO/WHO Expert Committee on Food Additives; cited from earlier work
[3] = system: glandular stomach, colon and lungs of mice; parameters: method as in PMID 20686341; conditions: cited from earlier work
[4] = target: T2, hCAI isoenzyme purified from human erythrocytes (Homo sapiens, UniProt P00915); test: Inhibition of esterase activity (p-nitrophenyl acetate) of purified hCAI; IC50, Ki, inhibition type; format: biochemical
T2 construct: hCAI isoenzyme purified from human erythrocytes; from tissue; host or cells: human erythrocytes
T2 sequence (P00915 whole entry): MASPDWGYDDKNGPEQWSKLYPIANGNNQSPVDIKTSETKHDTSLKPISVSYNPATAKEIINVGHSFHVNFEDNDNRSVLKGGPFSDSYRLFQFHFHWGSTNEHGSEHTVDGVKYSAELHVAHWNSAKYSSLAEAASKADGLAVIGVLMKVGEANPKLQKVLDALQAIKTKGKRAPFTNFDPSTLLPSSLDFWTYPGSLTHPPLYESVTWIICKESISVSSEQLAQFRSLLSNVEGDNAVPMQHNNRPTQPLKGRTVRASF
Protocol: as §1, §2, §3
Lineweaver–Burk lines were drawn for each inhibitor concentration. In the graph equation, Ki values were calculated by using Vmax=V^I max(1 + [I]/Ki) formula for semi‐competitive and Noncompetitive inhibition.

[5] = target: T3, hCAII isoenzyme purified from human erythrocytes (Homo sapiens, UniProt P00918); test: Inhibition of esterase activity (p-nitrophenyl acetate) of purified hCAII; format: biochemical; conditions: esterase activity method, saturated substrate concentration
T3 construct: […]; from tissue; host or cells: human erythrocytes
Protocol: as §1, §2, §3

[6] = system: hCAI; parameters: method as in PMID 27451209; conditions: in vitro; cited from earlier work
[7] = system: hCAI; conditions: read-out: IC50(hCAI); cited from earlier work
[8] = system: hCAII; conditions: read-out: IC50(hCAII); cited from earlier work
[9] = system: hCAII; conditions: cited from earlier work
[10] = esterase activity method, saturated substrate concentration, read-out: IC50 hCAI

Row | SMILES | IC50 [1] | ADI (acceptable daily intake) [2] | IC50 [4, 10] | IC50 [5] | other results
1 | CC1=CC(=O)NS(=O)(=O)O1 [Acesulfame K] | 2350.5 ± 0.1 µM | 15 mg/kg |  |  | inhibition at 2000 µg/mL ([1]; at 2 mg/mL concentration): 13%
2 | COc1cc(S(=O)(=O)[O-])c(C)cc1N=Nc1c(O)ccc2cc(S(=O)(=O)[O-])ccc12.[Na+].[Na+] [Allura Red AC] | 762.12 ± 0.12 µM | 7 mg/kg | 781.65 ± 0.06 µM | 504.04 ± 0.02 µM | DNA damage in in vivo comet assay [3]: DNA damage; IC50 [6]: 565 µM
3 | O=S(=O)([O-])c1ccc2c(N=Nc3ccc(S(=O)(=O)[O-])c4ccccc34)c(O)c(S(=O)(=O)[O-])cc2c1.[Na+].[Na+].[Na+] [Amaranth] | 296.06 ± 0.06 µM | 0.5 mg/kg | 496.04 ± 0.04 µM | 603.11 ± 0.11 µM | 
4 | O=C1O[C@H]([C@@H](O)CO)C(O)=C1O [Ascorbic Acid, Ascorbic acid] | 993.67 ± 0.03 µM |  | 1834.1 ± 0.1 µM | 2160.1 ± 0.07 µM | 
5 | COC(=O)[C@H](Cc1ccccc1)NC(=O)[C@@H](N)CC(=O)O [Aspartame] (HELM PEPTIDE1{D.F.[CO[*:1]]}$$$$V2.0) |  | 40 mg/kg | 2816.9 ± 0.03 µM | 2935.8 ± 0.02 µM | IC50 bCA [1]: inactive; IC50 bCA ([1]; listed as aspartame): no effect
6 | O=C(O)c1ccccc1 [Benzoic Acid, Benzoic acid] | 1850.7 ± 0.05 µM | 5 mg/kg | 2784 ± 0.06 µM | 2988.8 ± 0.06 µM | 
7 | CC(=O)Nc1ccc(S(=O)(=O)[O-])c2cc(S(=O)(=O)[O-])c(N=Nc3ccc(N=Nc4ccc(S(=O)(=O)[O-])cc4)c4ccc(S(=O)(=O)[O-])cc34)c(O)c12.[Na+].[Na+].[Na+].[Na+] [Brilliant Black BN] | 153.32 ± 0.04 µM | 1 mg/kg | 91.14 ± 0.09 µM | 502.45 ± 0.03 µM | 
8 | CCN(Cc1cccc(S(=O)(=O)[O-])c1)c1ccc(C(=C2C=CC(=[N+](CC)Cc3cccc(S(=O)(=O)[O-])c3)C=C2)c2ccccc2S(=O)(=O)[O-])cc1.[Na+].[Na+] [Brilliant Blue FCF] | 136.26 ± 0.04 µM | 6 mg/kg | 208.04 ± 0.03 µM | 364.3 ± 0.09 µM | 
9 | Cc1cc(C(C)(C)C)c(O)c(C(C)(C)C)c1 [Butylated Hydroxytoluene (BHT), Butylated hydroxytoluene (BHT)] | 512.85 ± 0.05 µM | 0.3 mg/kg | 462.89 ± 0.1 µM | 104.29 ± 0.09 µM | 
10 | Cc1c(C(=O)O)c(O)cc2c1C(=O)c1c(O)c([C@@H]3O[C@H](CO)[C@@H](O)[C@H](O)[C@H]3O)c(O)c(O)c1C2=O [Carminic Acid, Carminic acid] | 586.92 ± 0.01 µM | 2.5 mg/kg | 684 µM | 581.07 ± 0.03 µM | 
11 | O=C(O)CC(O)(CC(=O)O)C(=O)O [Citric Acid] | 616.9 ± 0.1 µM |  | 1799.4 ± 0.03 µM | 1241.9 ± 0.07 µM | 
12 | COc1cc(/C=C/C(=O)CC(=O)/C=C/c2ccc(O)c(OC)c2)ccc1O [Curcumin] |  |  |  |  | IC50 [7]: 5.63 µM; IC50 [8]: 4.81 µM
13 | O=C([O-])c1ccccc1-c1c2cc(I)c(=O)c(I)c-2oc2c(I)c([O-])c(I)cc12.[Na+].[Na+] [Erythrosine B] | 11 µM and 10.8 µM | 0.1 mg/kg | 19.37 ± 0.04 µM | 5 µM and 5.22 µM | Type of inhibition ([4]; Lineweaver–Burk): Noncompetitive; IC50 ([4]; Table 3, read-out: IC50 (hCAI esterase activity)): 19 µM; Ki ([4]; [I] 0.015 mM, Lineweaver–Burk, read-out: Ki values): 2.9 µM; Ki ([4]; [I] 0.019 mM, Lineweaver–Burk, read-out: Ki values): 1.7 µM; Ki ([4]; [I] 0.023 mM, Lineweaver–Burk, read-out: Ki values): 3.9 µM; Ki ([4]; three inhibitor concentrations, five substrate concentrations (0.15–0.75 mM), read-out: Average Ki): 2.8 µM
14 | O=C1/C(=C2\Nc3ccc(S(=O)(=O)[O-])cc3C2=O)Nc2ccc(S(=O)(=O)[O-])cc21.[Na+].[Na+] [Indigo Carmine] | 141.59 ± 0.07 µM | 5 mg/kg | 1018.6 ± 0.04 µM | 242.03 ± 0.03 µM | 
15 | CCN(CC)c1ccc(C(=C2C=CC(=[N+](CC)CC)C=C2)c2cc(O)c(S(=O)(=O)[O-])cc2S(=O)(=O)[O-])cc1.CCN(CC)c1ccc(C(=C2C=CC(=[N+](CC)CC)C=C2)c2cc(O)c(S(=O)(=O)[O-])cc2S(=O)(=O)[O-])cc1.[Ca+2] [Patent Blue V] | 267.46 ± 0.09 µM | 5 mg/kg | 316.98 ± 0.02 µM | 396.74 ± 0.03 µM | 
16 | O=S(=O)([O-])c1cc(S(=O)(=O)[O-])c2c(N=Nc3ccc(S(=O)(=O)[O-])c4ccccc34)c(O)ccc2c1.[Na+].[Na+].[Na+] [Ponceau 4R, Ponceau 4 R] | 239.84 ± 0.04 µM | 0.7 mg/kg | 678.27 ± 0.03 µM | 617.09 ± 0.01 µM | 
17 | O=C1NS(=O)(=O)c2ccccc21 [Saccharin] |  | 5 mg/kg | 2049.1 ± 0.1 µM |  | inhibition against hCAII [9]: low micromolar inhibition
18 | C/C=C/C=C/C(=O)O [Sorbic Acid, Sorbic acid] | 1801.4 ± 0.04 µM | 25 mg/kg | 4566.2 ± 0.06 µM | 3475.1 ± 0.1 µM | 
19 | O=S(=O)([O-])c1ccc(N=Nc2c(O)ccc3cc(S(=O)(=O)[O-])ccc23)cc1.[Na+].[Na+] [Sunset Yellow FCF] | 680.82 ± 0.05 µM | 4 mg/kg | 350.05 ± 0.03 µM | 488.63 ± 0.07 µM | 
20 | O=C([O-])C1=NN(c2ccc(S(=O)(=O)[O-])cc2)C(=O)C1N=Nc1ccc(S(=O)(=O)[O-])cc1.[Na+].[Na+].[Na+] (centres unmarked) [Tartrazine] | 659.67 ± 0.07 µM | 7.5 mg/kg | 652.25 ± 0.05 µM | 621.83 ± 0.05 µM | 
